One substance from publication PMC12735834, “Novel Trinorditerpene from Dysoxylum parasiticum (Osbeck) Kosterm: Leaf Extract with Cytotoxic, Antioxidant and α-Glucosidase Inhibitory Activities” (Molecules, 2025) can be followed below.

In this assay the target is α-glucosidase. As to the kind of experiment: colorimetric p-NPG hydrolysis assay, […] nm, triplicate. The class given is biochemical, Saccharomyces cerevisiae.

The IC50 is the concentration at which inhibition is half-maximal. In the case of “12-(3-carboxyfuran-2-yl)-trinorlabda-5,9-dien-15-oic acid [parasitic acid]”, the IC50 is listed as 36.29 ± 1.06 µg/mL.
